# How the values were obtained:
# [1] = system: orthotopic human Hep3b hepatocellular carcinoma tumors; assay: Tumor growth inhibition, orthotopic Hep3b model, AFP levels and tumor weights (Example 4.3); format: in vivo, mice; conditions: formulated in diamino lipid nanoparticles, iv
# Experimental: Seven to 8 weeks old female SCID/Beige mice (Shanghai Lingchang Bio-Technology Co. Ltd, Shanghai, China) were orthotopically implanted with a single 2×2×2 mm piece of a subq grown Hep3b tumor into the left liver lobe. Mice were randomized based on day 21 AFP levels. At the time of randomization, the AFP levels (ng/ml plasma) ranged between 1019 and 19779 ng/ml (median 5203, IQR=2690-9498). Treatments started on day 22 and continued for three weeks (see Table 8 for dosing scheme). AFP was measured once a week (4 times in total), and BW was measured twice a week. At the end of the study tumor weights were also determined. QDx3, QDx5=one injection per day for three or five consecutive days; BIW=twice a week; BID=twice daily; po=per oral.
# [2] = system: A2058 melanoma cells; assay: Adenosine assay; format: cell-based, human; conditions: miRNA-193a-3p at 10 nM, vs untreated, mock, scrambled
# Experimental: 4000 A2058 melanoma cells were seeded per well in a 96 well plate. 4h after seeding, cells were transfected with different concentrations of miRNA-193a-3p, scrambled control, siNT5E and siPool as control. 24h post transfection the cells were treated with 500 μM AMP and adenosine measurement was performed 24h post-treatment following steps from adenosine measurement kit (BioVision).
# [3] = system: 4T1 tumor microenvironment; assay: FACS analysis of immune cells in orthotopic 4T1 tumors (Example 4.4); format: in vivo, mice
# Experimental: Freshly isolated orthotopic 4T1 tumors were prepared for FACS analysis on day 5 (week 1) and day 12 (week 2) post miRNA-193a treatment when they reached a min tumor volume (TV) of 300 mm^3. Tumor samples were digested using murine tumor dissociation kit from Miltenyi (CAT #130-096-730). Following tumor cell digestion cells were re-suspended in 200 μl staining buffer with […] Fc-Block (Mouse BD Fc Block™ CAT #553141) and incubated at 4° C. for 15 minutes in the dark. Different markers (CD45, CD3, CD4, CD8, FoxP3, CD335, F4/80, CD11b, Gr-1, CD73, LAG3/CD223, IL-2, IFN-r, PD-1, L/D stain) have been used for FACS analysis. Antibody mixture for all markers except IL-2, IFN-r and LAG3 were diluted in Fc blocking buffer for each sample and stained for 30 min on ice, in the dark. Then, cells were gently washed by adding 2 ml of ice cold PBS to each tube. Each tube was centrifuged at 300 g for 5 minutes and supernatant was discarded. To detect intracellular markers (IL-2, IFN-r and LAG3) stimulation of the digested cells was performed. To do so, Leukocyte Activation Cocktail, with BD GolgiPlug™ was used. The cocktail was thawed at 37° C. in a water bath rapidly and for every 1 mL of cell culture (e.g., ˜10^6 cells/mL) 2 μL of cocktail was added and mixed thoroughly. To stimulate, cell culture mix was placed in a 37° C. humidified CO2 incubator for 4-6 hr. Then the cells were harvested and washed with FACS staining buffer. For staining, cell pellet was resuspended with pulse vortex and 200 ul of prepared Fixation/Permeabilization was added to each sample. Samples were incubated for 10 min at RT in the dark. Then, samples were washed twice by adding 1 ml of 1× Permeabilization Buffer (made from 10× Permeabilization Buffer, diluted with distilled H2O) followed by centrifugation and decanting of supernatant and each sample was incubated with the antibody cocktail containing FoxP3, IFN-r and IL-2 in 1× Permeabilization Buffer and incubated at RT for 30 minutes in the dark. Finally, cells were resuspended in […] of staining Buffer and analyzed on cytometer. The data was analysed by Kaluza flow cytometry software (from Beckman Coulter).
# (§1) Six to eight weeks old female BALB/c mice (Shanghai Lingchang Bio-Technology Co. Ltd, Shanghai, China) were injected with 3×10^5 4T1 mouse tumor cells in PBS (0.1 mL/mouse) into the mammary fat pad. At the time of randomization, the TVs ranged between 69.9 and 173.9 mm3 (median 105.7, IQR=100.7-125.4). Body weights and TVs (caliper measurements) were determined 2-3 times/week. After randomization (day 9 after tumor inoculation) mice received different treatments under different dosing regimen (see Table 9 for dosing scheme). For all groups, 4 mice are sacrificed 48h after the 2nd miRNA-193a injection in the first week and in the 2nd week. Primary tumors were surgically removed from the mammary fat pad on day 20 after inoculation. After a recovery period of 3 days, treatment was resumed for 6 more weeks until day 63. Re-growth of (distant) tumors was monitored in addition to BW, and mice were sacrificed if end-points were met.
# [4] = system: 3′ untranslated regions (UTR) of NT5E (CD73); assay: 3′UTR luciferase assay in Hela cells; format: cell-based; conditions: 10 nM
# Experimental: Firefly luciferase reporter constructs containing the 3′ untranslated regions (UTR) of NT5E (CD73) were transfected in Hela cells along with 10 nM miRNA-193a-3p or a scrambled control. Cell extracts were prepared 24 hours after transfection, and luciferase activity was measured using the Dual Luciferase Reporter Assay System (Promega). If the 3′UTR is a target of the miRNA, miRNA will interact with 3′UTR and provides lower luciferase signal.
# [5] = system: 4T1 triple negative breast cancer tumors; assay: Primary tumor regrowth and survival after 4T1 tumor resection (Example 4.4); format: in vivo, mice
# Experimental: as §1
substance,measurement,setting,value
"miRNA-193a: duplex of the miRNA-193a-3p of SEQ ID NO: 218 (mimic, sense) with antisense strand SEQ ID NO: 219; naked in vitro, formulated in vivo (sense UGGGACUUUGUAGGCCAGUUTT; antisense AACUGGCCUACAAAGUCCCAGU; chemistry not given here; listed as Homo sapiens)","TGI effects (AFP levels, tumor weights)",[1],significant TGI effects
same,Adenosine generation,[2],reduces
same,Ratio of CD8+ T cells/Treg cells,"[3]; 2 weeks post start of treatment, 10 mg/kg BIW iv, diamino lipid nanoparticles",> 1
same,Regulatory T cell population (FOXP3+/LAG3+),[3]; after 1 week,significant decrease
same,T-cell function (production of IFNγ and IL-2),"[3]; after 1 week, CD45+ tumor cell population",significant increase
same,Regulatory T cell population (FOXP3+/LAG3+),[3]; after 2 weeks,significant decrease
same,T-cell frequency (CD8+),[3]; after 2 weeks,significant increase
same,T-cell function (IFNγ),[3]; after 2 weeks,mild induction
same,CD73 (NT5E) expression level in immune cells,"[3]; week 1 and week 2, 48h after administration",down-regulated
same,Luciferase activity of reporter construct containing mutated form of the CD73 3′UTR,[4],did not affect the luciferase activity
same,Luciferase activity of reporter construct containing NT5E 3′UTR region,[4]; vs mock and scrambled controls,downregulation of the activity
same,Tumor re-growth after tumor excision,"[5]; formulated in diamino lipid nanoparticles, 10 mg/kg BIW iv",reduced tumor re-growth
same,Mouse survival,"[5]; formulated in diamino nanoparticles, 10 mg/kg BIW iv",positively affected mouse survival
same,Mice that showed a tumor re-growth after primary tumor removal,"[5]; primary tumor removal day 20, 10 mg/kg twice weekly for further 6 weeks",1 out of 10
